Numbering of substitutions follows the chain as printed. Read-outs that look alike come from different tables or passages of the source.
How the values were obtained:
[1] = biological target: T1, GlyT2 (Rattus norvegicus, UniProt P58295); assay: [3H]glycine transport by recombinant GlyT2 expressed in COS7 cells; assay type: cell-based; settings: for Vmax of glycine transport: n = 3; for reversibility of inhibition upon cell washing: washed, transport at 10 μM glycine; for decay of transport inhibition after 1–4 washes: 1 μM inhibitor 10 min, washes with HBS containing NaCl or choline chloride
T1 construct: expressed in transfected cells; host or cells: COS7
T1 sequence (P58295 1-799): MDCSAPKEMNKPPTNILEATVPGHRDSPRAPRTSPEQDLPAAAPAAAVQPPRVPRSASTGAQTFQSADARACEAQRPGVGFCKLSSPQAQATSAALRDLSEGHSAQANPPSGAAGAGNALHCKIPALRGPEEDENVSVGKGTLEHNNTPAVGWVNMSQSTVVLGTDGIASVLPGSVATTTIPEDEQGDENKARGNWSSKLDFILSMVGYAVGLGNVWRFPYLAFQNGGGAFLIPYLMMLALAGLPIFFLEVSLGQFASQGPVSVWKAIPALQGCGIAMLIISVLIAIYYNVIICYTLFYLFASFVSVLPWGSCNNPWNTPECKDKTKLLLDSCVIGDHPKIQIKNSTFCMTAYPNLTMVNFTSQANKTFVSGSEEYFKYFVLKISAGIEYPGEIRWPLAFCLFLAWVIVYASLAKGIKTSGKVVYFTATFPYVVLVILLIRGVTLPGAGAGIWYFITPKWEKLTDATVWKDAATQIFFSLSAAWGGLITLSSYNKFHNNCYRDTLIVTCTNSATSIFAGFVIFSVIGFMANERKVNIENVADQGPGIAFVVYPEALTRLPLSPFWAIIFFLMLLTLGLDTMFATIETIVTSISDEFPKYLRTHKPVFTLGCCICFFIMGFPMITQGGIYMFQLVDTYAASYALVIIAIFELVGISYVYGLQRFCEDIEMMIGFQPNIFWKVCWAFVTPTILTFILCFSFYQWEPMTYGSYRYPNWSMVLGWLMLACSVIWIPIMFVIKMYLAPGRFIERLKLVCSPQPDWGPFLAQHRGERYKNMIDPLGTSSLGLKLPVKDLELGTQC
Protocol: Substitution mutants were generated with the QuikChange II Site-Directed Mutagenesis kit (Agilent Technologies, Santa Clara, CA, USA), using rGlyT2 or rGlyT1 subcloned in pCDNA3.[47] The complete coding region of all of the constructs was sequenced to verify that only the desired mutation had been introduced. […] COS7 cells were grown and transfected using Turbofect Transfection Reagent (Thermo Fisher Scientific, Waltham, MA, USA), following the manufacturer’s protocol (2 μL reagent/μg of DNA). Cells were incubated for 48 h at 37 °C until used.
At the end of the desired time (usually 10 min), reactions were washed and terminated by aspiration. […] A nonlinear curve fitting method was used to obtain IC50 values using Graphpad Prism software, version 6.0, Graphpad, San Diego, CA, USA.

[2] = biological target: T2, GlyT2 D635E mutant (Rattus norvegicus, UniProt P58295, D635E); assay: [3H]glycine transport by GlyT2 mutant in COS7 cells; assay type: cell-based; settings: read-out: IC50 (Table S1)
T2 construct: expressed in transfected cells; host or cells: COS7
T2 sequence (P58295 1-799 D635E): T1 sequence (P58295 1-799) with D635E

[3] = 1 nM inhibitor, glycine 0.5–500 μM
[4] = 10 nM inhibitor, glycine 0.5–500 μM
[5] = 50 nM inhibitor, glycine 0.5–500 μM
[6] = 100 nM inhibitor, glycine 0.5–500 μM
[7] = IC50, inhibition of glycine transport, COS7 cells, 10 μM glycine

SMILES	Vmax of glycine transport [1, 3]	Vmax of glycine transport [1, 4]	reversibility of inhibition upon cell washing ([1]; 50 nM inhibitor)	Vmax of glycine transport [1, 5]	Vmax of glycine transport [1, 6]	decay of transport inhibition after 1–4 washes [1]	IC50 ([1]; 25 mM NaCl, choline chloride substitution, read-out: IC50, inhibition of [3H]-glycine transport, low sodium)	IC50 ([1]; 150 mM NaCl, read-out: IC50, inhibition of [3H]-glycine transport, regular sodium)	selectivity for GlyT2 over GlyT1 ([1]; COS7 cells)	IC50 [1, 7]	difference of inhibitor EC50 at every glycine concentration from its value at 10 μM glycine ([1]; glycine 0.5–500 μM)	inhibition type (Eadie–Hofstee plots) ([1]; glycine 0.5–500 μM)	IC50 [2]	IC50 ([1]; IC50 (Table S1), wtGlyT2, 10 μM glycine as in Figs. 4 and 5)	IC50 ([1]; IC50, inhibition of [3H]-glycine transport, low sodium, 25 mM NaCl, choline chloride substitution)	IC50 ([1]; IC50, inhibition of [3H]-glycine transport, regular sodium, 150 mM NaCl)	selectivity for GlyT2 (in words) ([1]; compared with ALX1393, Figure 2B)
N[C@@H](COC(c1cccc(F)c1)c1ccccc1OCc1ccccc1)C(=O)O (stereo partly shown) [ALX1393]	22.3 nmol Gly/mg prot/6 min	18.8 nmol Gly/mg prot/6 min	eliminated by cell washing	13.2 nmol Gly/mg prot/6 min	30.4 nmol Gly/mg prot/6 min	presence of sodium in the washing buffer reduced the washing power	122 ± 20.9 nM	21.8 ± 4.1 nM	about 2 orders of magnitude	31 ± 2.7 nM	no more than 30%	noncompetitive behavior	30 ± 4 nM	–	–	–	–
COc1cc(C(=O)NCC2(N(C)C)CCCC2)cc(OC)c1OCc1ccccc1 [ORG25543, N-[[1-(dimethylamino)cyclopentyl]methyl]-3,5-dimethoxy-4-(phenylmethoxy)benzamide]	24.6 nmol Gly/mg prot/6 min	23.8 nmol Gly/mg prot/6 min	irreversible inhibition	18.6 nmol Gly/mg prot/6 min	11.5 nmol Gly/mg prot/6 min	no inhibition decay was observed	–	–	–	17.7 ± 4.6 nM	–	mainly noncompetitive behavior	–	18 ± 5 nM	51.2 ± 12.3 nM	23.8 ± 7.1 nM	higher selectivity for GlyT2
